What was measured:
Format in all cases: functional
[1] = tested on: HCT-15; test: Growth inhibition of human HCT15 cells assessed as cell growth at 0.01 uM incubated for 48 hrs by sulforhodamine B assay relative to control; settings: HCT-15, 48 h, read-out: Activity
[2] = tested on: Malme-3M; test: Growth inhibition of human MALME-3M cells assessed as cell growth at 0.01 uM incubated for 48 hrs by sulforhodamine B assay relative to control; settings: read-out: Activity
[3] = tested on: 786-0; test: Growth inhibition of human 786-0 cells assessed as cell growth at 0.01 uM incubated for 48 hrs by sulforhodamine B assay relative to control; settings: 786-0, 48 h, read-out: Activity
[4] = tested on: LOX IMVI; test: Growth inhibition of human LOXIMVI cells assessed as cell growth at 0.1 uM incubated for 48 hrs by sulforhodamine B assay relative to control; settings: read-out: Activity
[5] = tested on: UACC-257; test: Growth inhibition of human UACC257 cells assessed as cell growth at 0.1 uM incubated for 48 hrs by sulforhodamine B assay relative to control; settings: UACC-257, 48 h, read-out: Activity
[6] = tested on: KM12; test: Growth inhibition of human KM12 cells assessed as cell growth at 1 uM incubated for 48 hrs by sulforhodamine B assay relative to control; settings: KM12, 48 h, read-out: Activity
[7] = tested on: SF-268; test: Growth inhibition of human SF268 cells assessed as cell growth at 1 uM incubated for 48 hrs by sulforhodamine B assay relative to control; settings: SF-268, 48 h, read-out: Activity
[8] = tested on: SF-295; test: Growth inhibition of human SF295 cells assessed as cell growth at 1 uM incubated for 48 hrs by sulforhodamine B assay relative to control; settings: SF-295, 48 h, read-out: Activity
[9] = tested on: MDA-MB-231; test: Growth inhibition of human MDA-MB-231 cells assessed as cell growth at 1 uM incubated for 48 hrs by sulforhodamine B assay relative to control; settings: MDA-MB-231, 48 h, read-out: Activity
[10] = tested on: A549; test: Growth inhibition of human A549/ATCC cells assessed as cell growth at 10 uM incubated for 48 hrs by sulforhodamine B assay relative to control; settings: A549, 48 h, read-out: Activity
[11] = tested on: UACC-257; test: Growth inhibition of human UACC257 cells assessed as cell growth at 10 uM incubated for 48 hrs by sulforhodamine B assay relative to control; settings: UACC-257, 48 h, read-out: Activity
[12] = tested on: OVCAR-5; test: Growth inhibition of human OVCAR5 cells assessed as cell growth at 10 uM incubated for 48 hrs by sulforhodamine B assay relative to control; settings: OVCAR-5, 48 h, read-out: Activity
[13] = tested on: NCI/ADR-RES; test: Growth inhibition of human NCI/ADR-RES cells assessed as cell growth at 10 uM incubated for 48 hrs by sulforhodamine B assay relative to control; settings: read-out: Activity
[14] = tested on: CCRF-CEM; test: Growth inhibition of human CCRF-CEM cells assessed as cell growth at 100 uM incubated for 48 hrs by sulforhodamine B assay relative to control; settings: read-out: Activity
[15] = tested on: RPMI-8226; test: Growth inhibition of human RPMI8226 cells assessed as cell growth at 100 uM incubated for 48 hrs by sulforhodamine B assay relative to control; settings: RPMI-8226, 48 h, read-out: Activity
[16] = tested on: HCT-116; test: Growth inhibition of human HCT116 cells assessed as cell growth at 100 uM incubated for 48 hrs by sulforhodamine B assay relative to control; settings: HCT-116, 48 h, read-out: Activity
[17] = tested on: Malme-3M; test: Growth inhibition of human MALME-3M cells assessed as cell growth at 100 uM incubated for 48 hrs by sulforhodamine B assay relative to control; settings: read-out: Activity
[18] = tested on: NCI/ADR-RES; test: Growth inhibition of human NCI/ADR-RES cells assessed as cell growth at 100 uM incubated for 48 hrs by sulforhodamine B assay relative to control; settings: read-out: Activity
[19] = tested on: HOP-92; test: Growth inhibition of human HOP92 cells assessed as cell growth at 0.003 uM incubated for 48 hrs by sulforhodamine B assay relative to control; settings: HOP-92, 48 h, read-out: Activity
[20] = tested on: KM12; test: Growth inhibition of human KM12 cells assessed as cell growth at 0.003 uM incubated for 48 hrs by sulforhodamine B assay relative to control; settings: KM12, 48 h, read-out: Activity
[21] = tested on: TK-10; test: Growth inhibition of human TK10 cells assessed as cell growth at 0.003 uM incubated for 48 hrs by sulforhodamine B assay relative to control; settings: TK-10, 48 h, read-out: Activity
[22] = tested on: UO-31; test: Growth inhibition of human UO31 cells assessed as cell growth at 0.003 uM incubated for 48 hrs by sulforhodamine B assay relative to control; settings: UO-31, 48 h, read-out: Activity
[23] = tested on: COLO 205; test: Growth inhibition of human COLO205 cells assessed as cell growth at 0.03 uM incubated for 48 hrs by sulforhodamine B assay relative to control; settings: COLO 205, 48 h, read-out: Activity
[24] = tested on: SNB-75; test: Growth inhibition of human SNB75 cells assessed as cell growth at 0.03 uM incubated for 48 hrs by sulforhodamine B assay relative to control; settings: SNB-75, 48 h, read-out: Activity
[25] = tested on: CAKI-1; test: Growth inhibition of human Caki1 cells assessed as cell growth at 0.03 uM incubated for 48 hrs by sulforhodamine B assay relative to control; settings: CAKI-1, 48 h, read-out: Activity
[26] = tested on: NCI-H226; test: Growth inhibition of human NCI-H226 cells assessed as cell growth at 0.3 uM incubated for 48 hrs by sulforhodamine B assay relative to control; settings: NCI-H226, 48 h, read-out: Activity
[27] = tested on: A498; test: Growth inhibition of human A498 cells assessed as cell growth at 0.3 uM incubated for 48 hrs by sulforhodamine B assay relative to control; settings: A498, 48 h, read-out: Activity
[28] = tested on: ACHN; test: Growth inhibition of human ACHN cells assessed as cell growth at 0.3 uM incubated for 48 hrs by sulforhodamine B assay relative to control; settings: read-out: Activity
[29] = tested on: K562; test: Growth inhibition of human K562 cells assessed as cell growth at 3 uM incubated for 48 hrs by sulforhodamine B assay relative to control; settings: K562, 48 h, read-out: Activity
[30] = tested on: NCI-H522; test: Growth inhibition of human NCI-H522 cells assessed as cell growth at 3 uM incubated for 48 hrs by sulforhodamine B assay relative to control; settings: NCI-H522, 48 h, read-out: Activity
[31] = tested on: SF-268; test: Growth inhibition of human SF268 cells assessed as cell growth at 3 uM incubated for 48 hrs by sulforhodamine B assay relative to control; settings: SF-268, 48 h, read-out: Activity
[32] = tested on: SK-MEL-5; test: Growth inhibition of human SK-MEL-5 cells assessed as cell growth at 3 uM incubated for 48 hrs by sulforhodamine B assay relative to control; settings: SK-MEL-5, 48 h, read-out: Activity
[33] = tested on: OVCAR-5; test: Growth inhibition of human OVCAR5 cells assessed as cell growth at 3 uM incubated for 48 hrs by sulforhodamine B assay relative to control; settings: OVCAR-5, 48 h, read-out: Activity
[34] = tested on: 786-0; test: Growth inhibition of human 786-0 cells assessed as cell growth at 3 uM incubated for 48 hrs by sulforhodamine B assay relative to control; settings: 786-0, 48 h, read-out: Activity
[35] = tested on: CAKI-1; test: Growth inhibition of human Caki1 cells assessed as cell growth at 3 uM incubated for 48 hrs by sulforhodamine B assay relative to control; settings: CAKI-1, 48 h, read-out: Activity

| Structure (SMILES) | growth at 0.01 µM [1] | growth at 0.01 µM [2] | growth at 0.01 µM [3] | growth at 0.1 µM [4] | growth at 0.1 µM [5] | growth at 1 µM [6] | growth at 1 µM [7] | growth at 1 µM [8] | growth at 1 µM [9] | growth at 10 µM [10] | growth at 10 µM [11] | growth at 10 µM [12] | growth at 10 µM [13] | growth at 100 µM [14] | growth at 100 µM [15] | growth at 100 µM [16] | growth at 100 µM [17] | growth at 100 µM [18] | growth at 0.003 µM [19] | growth at 0.003 µM [20] | also measured |
| --- | --- | --- | --- | --- | --- | --- | --- | --- | --- | --- | --- | --- | --- | --- | --- | --- | --- | --- | --- | --- | --- |
| COc1cc2cc(Oc3ccc(NC(=O)Nc4ccc(Cl)c(Cl)c4)cc3)c(C)nc2cc1OC | 100% | 102% | 83% | 96% | 92% | 93% | 110% | 80% | 77% | -9% | -23% | 50% | 14% | -26% | -47% | -100% | -99% | -46% |  |  |  |
| COc1cc2cc(Oc3ccc(NC(=O)Nc4cc(C(F)(F)F)cc(C(F)(F)F)c4)cc3)c(C)nc2cc1OC | 93% | 87% | 89% | 95% | 110% | 48% | 79% | 31% | 55% | -31% | -38% | -58% | -54% | -40% | -34% | -87% | -74% | -45% |  |  |  |
| COc1cc2cc(Oc3ccc(NC(=O)Nc4ccc(Cl)c(C(F)(F)F)c4)cc3)c(C)nc2cc1OC |  |  |  |  |  |  |  |  |  |  |  |  |  |  |  |  |  |  | 92% | 100% | growth at 0.003 µM [21]: 94%; growth at 0.003 µM [22]: 87%; growth at 0.03 µM [23]: 94%; growth at 0.03 µM [24]: 84%; growth at 0.03 µM [25]: 96%; growth at 0.3 µM [26]: 106%; growth at 0.3 µM [27]: 78%; growth at 0.3 µM [28]: 95%; growth at 3 µM [29]: 12%; growth at 3 µM [30]: -8%; growth at 3 µM [31]: 26%; growth at 3 µM [32]: -20%; growth at 3 µM [33]: 32%; growth at 3 µM [34]: 16%; growth at 3 µM [35]: -11% |
| Cc1nc2cc(O)c(O)cc2cc1Oc1ccc(NC(=O)Nc2ccc(Cl)c(Cl)c2)cc1 |  |  |  |  |  |  |  |  |  |  |  |  |  |  |  |  |  |  | 84% | 103% | growth at 0.003 µM [21]: 98%; growth at 0.003 µM [22]: 91%; growth at 0.03 µM [23]: 108%; growth at 0.03 µM [24]: 81%; growth at 0.03 µM [25]: 94%; growth at 0.3 µM [26]: 97%; growth at 0.3 µM [27]: 80%; growth at 0.3 µM [28]: 107%; growth at 3 µM [29]: 76%; growth at 3 µM [30]: 65%; growth at 3 µM [31]: 85%; growth at 3 µM [32]: 85%; growth at 3 µM [33]: 119%; growth at 3 µM [34]: 98%; growth at 3 µM [35]: 62% |
